{
  "source": "patent US5698222A",
  "about": "“Calcium supplement” (Abbott Laboratories, priority 1995, dated 1997)",
  "key": {"[1]": {"assay": "titratable acidity of calcium sources", "assay_type": "physicochemical", "settings": "pH 3.5 raised to pH 8.3, 40 g sample", "excerpt": "Acidity is desired in the liquid nutritional product of the present invention for several reasons such as: to maintain the calcium salt solubility, to complement flavor, to control microbial growth, and to enhance the role of preservatives, specifically potassium benzoate or sodium benzoate. On the other hand, too much acidity can result in increased tartness and sourness that make the product undesirable from a sensory point of view. […] Titratable acidity is an indication of the total acidity of a beverage."}, "[2]": {"settings": "cited from earlier work"}, "[3]": {"description": "In this evaluation solubility was determined by a visual examination."}, "[4]": {"settings": "values from Whiting article; cited from earlier work"}, "[5]": {"settings": "without aluminum-containing drugs; cited from earlier work"}, "[6]": {"settings": "rats, three weeks, as compared to a control; cited from earlier work"}, "[7]": {"settings": "large amounts; cited from earlier work"}, "[8]": {"settings": "piglets; cited from earlier work"}, "[9]": {"settings": "low birth weight infants; cited from earlier work"}},
  "note": "Where a name gives a salt, the structure may show the parent alone. Read-outs that look alike come from different tables or passages of the source.",
  "data": [
    {"compound": "CC(O)C(=O)O", "note": "(centres unmarked) [Calcium Lactate, calcium lactate]", "values": [
      {"measurement": "Titratable acidity", "setting": "[1]", "value": "47.1 mL of 0.1N NaOH"}
    ]},
    {"compound": "O=P(O)(O)OCC(O)CO", "note": "(centres unmarked) [glycerophosphate]", "values": [
      {"measurement": "pKf", "setting": "[2]", "value": 6.1}
    ]},
    {"compound": "O=C(O)[C@H](O)[C@@H](O)[C@H](O)[C@H](O)CO", "note": "[D-Gluconic-Acid, D-gluconic acid (hemicalcium salt)]", "values": [
      {"measurement": "solubility at time of manufacture", "setting": "[3]; pH 3.5", "value": "soluble"},
      {"measurement": "solubility at 1 month", "setting": "[3]; pH 5", "value": "partially Soluble"},
      {"measurement": "solubility at time of manufacture", "setting": "[3]; pH 5", "value": "soluble"}
    ]},
    {"compound": "[Ca+2].[OH-].[OH-]", "note": "[Calcium Hydroxide, calcium hydroxide]", "values": [
      {"measurement": "Titratable acidity", "setting": "[1]", "value": "60.6 mL of 0.1N NaOH"}
    ]},
    {"compound": "calcium citrate malate", "values": [
      {"measurement": "Titratable acidity", "setting": "[1]", "value": "53.2 mL of 0.1N NaOH"}
    ]},
    {"compound": "O=C(O)O", "note": "[CaCO3 (from fossil shell)]", "values": [
      {"measurement": "Aluminum Content", "setting": "[4]", "value": "4,400 parts per million (ppm)"}
    ]},
    {"compound": "[Ca+2].[Cl-].[Cl-]", "note": "[Calcium Chloride, calcium chloride]", "values": [
      {"measurement": "Titratable acidity", "setting": "[1]", "value": "0.7 mL of 0.1N NaOH"}
    ]},
    {"compound": "O=C(O)CC(O)(CC(=O)O)C(=O)O", "note": "[Calcium Citrate, calcium citrate]", "values": [
      {"measurement": "aluminum toxicity risk", "setting": "[5]", "value": "does not pose a risk of aluminum toxicity"},
      {"measurement": "relative calcium bioavailability", "setting": "[6]", "value": 110, "unit": "%"},
      {"measurement": "Titratable acidity", "setting": "[1]", "value": "57.5 mL of 0.1N NaOH"}
    ]},
    {"compound": "O=C(O)O", "note": "[CaCO3 (from Dolomite)]", "values": [
      {"measurement": "Aluminum Content", "setting": "[4]", "value": "171-315 parts per million (ppm)"}
    ]},
    {"compound": "O=C(O)O", "note": "[Calcium Carbonate, calcium carbonate]", "values": [
      {"measurement": "adverse effects", "setting": "[7]", "value": "can lead to constipation and abdominal distention"},
      {"measurement": "Titratable acidity", "setting": "[1]", "value": "61.4 mL of 0.1N NaOH"}
    ]},
    {"compound": "O=P([O-])([O-])[O-].O=P([O-])([O-])[O-].[Ca+2].[Ca+2].[Ca+2]", "note": "[Tricalcium Phosphate, tricalcium phosphate]", "values": [
      {"measurement": "relative calcium bioavailability", "setting": "[6]", "value": 110, "unit": "%"},
      {"measurement": "Titratable acidity", "setting": "[1]", "value": "48.6 mL of 0.1N NaOH"}
    ]},
    {"compound": "calcium glycerophosphate [CaGP]", "values": [
      {"measurement": "effectiveness as source of calcium in TPN solutions", "setting": "[8]", "value": "as effective as calcium gluconate"},
      {"measurement": "Titratable acidity", "setting": "[1]", "value": "43.5 mL of 0.1N NaOH"},
      {"measurement": "effectiveness as source of calcium in TPN solutions", "setting": "[9]", "value": "as effective as calcium gluconate"}
    ]}
  ]
}
